Consider 1 substance from US7211120B2, “Method for forming a pattern of an organic semiconductor film” (Canon Kabushiki Kaisha, priority 2002, dated 2007).

What all share (format): physicochemical
Data set [1] is described as follows: Humidity-fastness test, recorded article stored in thermo-hydrostat vessel. The note with it: Reference Example printed article; 30° C., 80% RH, 1 week. Here is the method:
(§1) Reddish purple color square patches of 1 cm×1 cm were printed on a recording medium (trade name: PR-101; manufactured by Canon Inc.) using the above two types of ink on an ink-jet printer, trade name: BJ-F 870; manufactured by Canon Inc. The color patches of Example 2 were heat treated at 120° C. for 1 minute for retro-Diels-Alder reaction of the compound 7 and converted into cyan color patch. The resultant color patches of Example 2 and Reference Example were tested for their light-fastness, gas-fastness, water-fastness and moisture-fastness.
The obtained recorded article was stored in a thermo-hydrostat vessel at 30° C., 80% RH for 1 week, drawn from the vessel and dried, and its change in density before and after the test was determined. • A: Density reduction rate of 1% or less • B: Density reduction rate of 2 to 4% • C: Density reduction rate of 5% or more.

Data set [2] in a line: Water-fastness test, recorded article immersed in city water. The conditions noted are these: Reference Example printed article; city water 5 minutes. As to the method:
as §1
The obtained recorded article was immersed in city water for 5 minutes, drawn up from the water and dried, and its change in density before and after the test was determined. • A: Density reduction rate of 1% or less. • B: Density reduction rate of 2 to 4% • C: Density reduction rate of 5% or more (Humidity-fastness)

Data set [3] is described as follows: Gas-fastness test of printed colour patch with gas corrosion tester. The conditions noted are these: Reference Example printed article; mixed gas, 72 hours, 24° C., 60% RH. As to the method: as §1
Gas-exposure-fastness testing was conducted with a gas corrosion tester under the following test conditions (ANSI/ISA-S71.04-1985). This was to test fastness of an image assuming the effects of various gases in a room.
• Exposing gas composition: H2S: 50 ppb, SO2: 300 ppb, NO2: 1250 ppb, Cl2: 10 ppb, O3: 1200 ppb • Testing duration: 72 hours, Temperature/humidity conditions in a testing vessel: 24° C., 60% RH
The gas-fastness was evaluated as follows: • A: Density remaining rate of 90% or more • B: Density remaining rate of 89 to 80% • C: Density remaining rate of 79% or less (Water-fastness)

Data set [4] in a line: Light-fastness test of printed colour patch with xenon fade meter. The note with it: Reference Example printed article; 70 Kl×, 520 hours, 24° C., 60% RH. As to the method:
as §1
Light-exposure-fastness test was conducted with a xenone fade meter in accordance with the following test conditions. This was to test fastness of an image mimicking sunlight entering through a window in a room.
• Irradiation Intensity: 70 Kl×testing duration 520 hours • Temperature/humidity conditions in a testing vessel: 24° C., 60% RH • Filter: soda lime (outer), borosilicate (inner)
The light-fastness was evaluated as follows: • A: Density remaining rate of 90% or more • B: Density remaining rate of 89 to 80% • C: Density remaining rate of 79% or less (Gas-fastness)

Take C.I. Direct Blue 199 [DBL-199]: the Humidity-fastness entry in data set [1] is “B (Density reduction rate of 2 to 4%)”. The Water-fastness result in data set [2] was “C (Density reduction rate of 5% or more)”. The Gas-fastness result in data set [3] is “C (Density remaining rate of 79% or less)”. The Light-fastness entry in data set [4] was “A (Density remaining rate of 90% or more)”.
